# Data published in ChEMBL document CHEMBL1201862, “PubChem BioAssay data set” (2004).
# Calls of active or inactive are those of the source.
# Columns and labels:
# [1] = microbe, parasite or virus in culture; type: functional; conditions: Mycobacterium tuberculosis
# [2] = test system: BJ; assay: BJ-TERT fibroblast viability loss – cell-based, RAS-independent, luminescence, dose response (AID 1933); type: functional; conditions: Homo sapiens
# [3] = DRD fibroblast viability loss – cell-based, non-viral oncogenic, luminescence, dose response (AID 1934); type: functional; conditions: Homo sapiens
# [4] = test system: INS1; assay: INS-1E survival protection against cytokine death – cell-based, luminescence, retest, dose response (AID 449756); type: functional; conditions: Rattus norvegicus;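 further: cell death triggered by IL-1 beta plus TNF-alpha plus IFN-gamma mixture; protective hits raise ATP signal compared with cytokine alone wells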
# [5] = test system: BJ; assay: growth inhibition of engineered Ras-driven BJ cells – cell-based, alamar blue fluorescence, cherrypicked samples, dose response (AID 2631); type: functional; conditions: Homo sapiens;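 further: confirmatory dose-response assay in RAS-dependent BJ fibroblasts engineered with TERT, LT and ST, with cytotoxicity read by fluorescence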
# [6] = test system: BJ; assay: cells; type: functional, cell-based; conditions: Homo sapiens
# [7] = Fluorescence-based cell-based high throughput dose response assay for inhibitors of the interaction of nucleotide-binding oligomerization domain containing 2 (NOD2) and the receptor-interacting serine-threonine kinase 2 (RIPK2).; type: functional; conditions: Homo sapiens
# [8] = test system: BJ; assay: BJ-TERT-LT-ST fibroblast viability loss – cell-based, RAS-independent, luminescence, dose response (AID 1935); type: functional; conditions: Homo sapiens;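 further: BJ fibroblasts immortalized with TERT plus LT and ST oncogenes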
# [9] = intracellular Trypanosoma cruzi inhibitors in host cells – cell-based, plate reader, cherry-pick samples, set 3, dose response (AID 651818); type: functional;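 further: compounds incubated with infected cells for about four days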
# [10] = mouse fibroblast viability loss – cell-based, cherry-pick samples, set 2, cytotoxicity control for T. cruzi growth inhibitor project, dose response (AID 651817); type: functional; conditions: NIH3T3
# [11] = biological target: Luciferin 4-monooxygenase (Photinus pyralis, UniProt P08659); assay: inhibition of purified Photinus pyralis luciferase – biochemical, luminescence, dose response (AID 1891)
# [12] = biological target: Low molecular weight phosphotyrosine protein phosphatase (Homo sapiens, UniProt P24666); type: functional; conditions: read-out: IC50_Mean;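 further: Dose-response confirmation assay measuring inhibition of LMPTP enzyme activity by fluorescence intensity read-out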
# [13] = viability of uninfected HEp-2 cells – cell-based, HTS, cytotoxicity control for RSV inhibitor project, dose response (AID 2410); type: functional; conditions: human respiratory syncytial virus
# [14] = Luminescence Cell-Based Dose Confirmation HTS to Identify Inhibitors of Platelet Dense Granule Release. [Related pubchem assays: 1663 (Primary HTS), 1678 (Summary of Project)]; type: functional
# [15] = biological target: T1, Genome polyprotein (Hepatitis C virus, UniProt Q2Q167); assay: Late stage assay provider counterscreen results for the probe development effort to identify inhibitors of Hepatitis C Virus (HCV) core protein dimerization: Luminescence-based biochemical AlphaScreen assay to identify inhibitors of HCV core dimerization.; type: functional, Hepacivirus hominis
# T1 sequence (Q2Q167 whole entry): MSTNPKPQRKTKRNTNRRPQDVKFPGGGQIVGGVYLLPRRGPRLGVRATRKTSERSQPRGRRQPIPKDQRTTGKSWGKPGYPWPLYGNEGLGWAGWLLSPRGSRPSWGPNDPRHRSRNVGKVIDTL
# [16] = biological target: T1, Genome polyprotein; assay: disruption of hepatitis C core self-association – biochemical, TR-FRET, dose response (AID 2159); parameters: species or system Hepacivirus hominis;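 further: blocks dimerization of HCV core protein measured by TR-FRET between tagged core106 pairs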
# [17] = biological target: T2, Beta Lactamase (Pseudomonas aeruginosa, UniProt Q932Y6); assay: VIM-2 CCF2 hydrolysis inhibition, assay artifact filter – biochemical, FRET readout, CCF2 substrate, artefact control for selective VIM-2 inhibitor project, dose response (AID 1926)
# [18] = biological target: T3, Beta-lactamase (Pseudomonas aeruginosa, UniProt Q79MP6); assay: inhibition of IMP-1 beta-lactamase activity – biochemical, epi-absorbance, selectivity assay for VIM-2 inhibitor project, dose response (AID 1920)
# [19] = biological target: Beta-lactamase (Salmonella choleraesuis (strain SC-B67), UniProt Q5J463); assay: Epi-absorbance-based counterscreen for selective VIM-2 inhibitors: dose response biochemical high throughput screening assay to identify inhibitors of TEM-1 serine-beta-lactamase.
# [20] = biological target: T2, Beta Lactamase; assay: concentration-dependent VIM-2 enzyme inhibition – biochemical, epi-absorbance readout, selective inhibitors, dose response (AID 1919)
# [21] = biological target: T3, Beta-lactamase; assay: […] counterscreen for selective VIM-2 inhibitors: dose response biochemical high throughput screening assay to identify inhibitors of IMP-1 metallo-beta-lactamase.
# T2 sequence (Q932Y6 whole entry): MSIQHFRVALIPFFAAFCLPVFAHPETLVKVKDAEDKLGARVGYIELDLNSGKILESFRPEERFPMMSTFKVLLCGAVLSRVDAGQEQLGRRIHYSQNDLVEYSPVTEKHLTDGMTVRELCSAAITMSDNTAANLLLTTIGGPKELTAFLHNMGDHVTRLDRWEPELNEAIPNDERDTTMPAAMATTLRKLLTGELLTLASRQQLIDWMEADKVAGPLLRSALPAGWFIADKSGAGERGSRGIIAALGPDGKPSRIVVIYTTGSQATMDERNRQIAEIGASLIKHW
# T3 sequence (Q79MP6 whole entry): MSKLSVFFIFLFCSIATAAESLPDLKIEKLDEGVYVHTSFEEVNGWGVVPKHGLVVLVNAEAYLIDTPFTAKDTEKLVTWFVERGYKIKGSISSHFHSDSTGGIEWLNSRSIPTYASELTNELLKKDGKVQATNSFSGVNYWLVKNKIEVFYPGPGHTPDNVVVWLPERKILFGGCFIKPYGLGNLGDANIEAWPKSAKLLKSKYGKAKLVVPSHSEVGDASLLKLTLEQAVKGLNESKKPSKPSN
# Chain of Luciferin 4-monooxygenase (P08659 whole entry): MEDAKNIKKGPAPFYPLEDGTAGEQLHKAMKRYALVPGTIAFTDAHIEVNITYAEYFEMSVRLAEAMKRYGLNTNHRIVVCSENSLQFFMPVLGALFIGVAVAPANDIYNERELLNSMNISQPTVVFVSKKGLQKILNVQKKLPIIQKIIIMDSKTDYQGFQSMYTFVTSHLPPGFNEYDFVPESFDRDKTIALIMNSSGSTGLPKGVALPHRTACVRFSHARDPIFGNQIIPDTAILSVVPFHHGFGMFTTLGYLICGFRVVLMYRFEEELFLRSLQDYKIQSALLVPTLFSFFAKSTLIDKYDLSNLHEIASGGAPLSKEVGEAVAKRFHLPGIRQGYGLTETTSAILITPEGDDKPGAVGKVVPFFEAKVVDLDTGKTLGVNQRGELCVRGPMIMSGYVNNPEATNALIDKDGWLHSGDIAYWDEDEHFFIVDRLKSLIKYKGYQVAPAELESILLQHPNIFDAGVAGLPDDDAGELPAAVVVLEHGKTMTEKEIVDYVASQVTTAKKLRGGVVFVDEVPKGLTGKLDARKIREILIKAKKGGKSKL
# Chain of Low molecular weight phosphotyrosine protein phosphatase (P24666 whole entry): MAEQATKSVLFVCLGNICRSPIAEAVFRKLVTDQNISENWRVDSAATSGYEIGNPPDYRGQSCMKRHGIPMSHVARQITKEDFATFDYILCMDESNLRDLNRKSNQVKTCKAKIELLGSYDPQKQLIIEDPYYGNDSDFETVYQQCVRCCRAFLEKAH
# Chain of Beta-lactamase (Salmonella choleraesuis (strain SC-B67), UniProt Q5J463) (Q5J463 whole entry): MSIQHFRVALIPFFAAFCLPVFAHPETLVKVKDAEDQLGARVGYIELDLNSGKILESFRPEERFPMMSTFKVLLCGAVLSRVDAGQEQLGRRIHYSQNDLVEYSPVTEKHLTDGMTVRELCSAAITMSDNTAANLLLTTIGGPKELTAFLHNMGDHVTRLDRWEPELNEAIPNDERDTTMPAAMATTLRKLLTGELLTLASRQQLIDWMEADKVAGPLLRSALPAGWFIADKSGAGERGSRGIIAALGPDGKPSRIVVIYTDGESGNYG
structure (smiles),measurement,setting,value
CCOc1cc(/C=C2\COc3ccccc3C2=O)cc(Br)c1OCC(=O)N(C)C,CC50,[1],15.2 µM (active)
same,EC50,[2],5.54 µM (inconclusive)
same,EC50,[3],5.72 µM (active)
same,AC50,[4],7.22 µM (active)
same,EC50,[5],2.12 µM (active)
same,EC50,[6],8.64 µM (active)
same,IC50,[7],6.43 µM (active)
same,EC50,[8],16.4 µM (active)
Cc1ccc(S(=O)(=O)N(C)C[C@H]2Oc3ccc(NS(=O)(=O)c4ccc(Cl)cc4)cc3CC(=O)N([C@H](C)CO)C[C@H]2C)cc1,AC50,[9],2.35 µM (active)
same,AC50,[10],39 µM (inactive)
Cc1cccc2nc(-c3ccccc3)nc(N[C@@H](CO)c3ccccc3)c12,EC50,[11],> 112 µM (not active)
same,IC50,[12],17 µM (active)
same,CC50,[13],19 µM (active)
same,EC50,[14],> 112 µM (not active)
CC1=C(/C=C/C(C)=C/C=C/C(C)=C/C=C/C=C(C)/C=C/C=C(C)/C=C/C2=C(C)CCCC2(C)C)C(C)(C)CCC1 [BETA CAROTENE],IC50,[15],34.8 µM (inactive)
same,IC50,[16],29.7 µM (not active)
O=[N+]([O-])c1ccccc1/C=N/n1c(S)nnc1C(F)(F)F,IC50,[17],3.12 µM (active)
same,IC50,[18],> 59.6 µM (inactive)
same,IC50,[19],> 59.6 µM (inactive)
same,IC50,[20],9.33 µM (active)
same,IC50,[21],> 59.6 µM (inactive)
